The text below walks through data of paper PMC9851200, “Multiparameter phenotypic screening for endogenous TFEB and TFE3 translocation identifies novel chemical series modulating lysosome function” (Autophagy, 2022).

Series [1] relates to SH-SY5Y cells.
From the text: The PKIS2 Library was supplied by The Structural Genomics Consortium at the University of North Carolina at Chapel Hill.
For series [2], the system named is SH-SY5Y cells. The series is described as follows: AK (adenylate kinase) release ToxiLight cytotoxicity assay. Also: reference of the scale not given here.
The subject of series [3] is SH-SY5Y cells. The series is described as follows: Nuclear count from microscopy images (cellular growth and toxicity). Also: reference of the scale not given here.
Another series has as its system endogenous TFEB. Briefly: TFEB nuclear translocation, immunocytochemistry high-content imaging. Type of series: cell-based.
The test system of a further series is endogenous TFE3. Briefly: TFE3 nuclear translocation, immunocytochemistry high-content imaging. Type of series: cell-based.
[4] abbreviates: PKIS2 primary screening, DQ Red BSA intensity.
[5] abbreviates: PKIS2 primary screening, DQ Red BSA spot count.

Like-named read-outs stand apart in the source and are kept apart here.
For DQ Intensity in this document: reference of the scale not given here.
For DQ Spot in this document: reference of the scale not given here.

Take `NS(=O)(=O)c1cccc(N/C=C2\C(=O)Nc3ccc(S(=O)(=O)Cc4c(Cl)cccc4Cl)cc32)c1` [UNC10225298A]: the “DQ Intensity” value with SH-SY5Y cells [1] (PKIS2 primary screen, DQ Red BSA intensity) stood at 100.02. In the series on SH-SY5Y cells [1] (PKIS2 primary screen, DQ Red BSA spot count), the “DQ Spot” value amounted to 99.79. For the same compound, the AK with SH-SY5Y cells [2] (PKIS2 primary screen) is 117.06. Also, the “Nuclear Count” value with SH-SY5Y cells [3] (PKIS2 primary screen) turned out to be 112.41. In addition, the TFEB % with endogenous TFEB (PKIS2 primary screen) amounted to 5.78%. This compound also gave a TFE3 % in the series on endogenous TFE3 (PKIS2 primary screen) of 5.33%.

For the compound `Cc1c(Cn2c(C)nn3c(=O)cc(N4CCO[C@H](C)C4)nc23)cccc1C(F)(F)F` [UNC10225403A], in the series on SH-SY5Y cells [1] (PKIS2 primary screening), the “DQ Intensity” value is listed as 146.49 and the “DQ Spot” value stood at 116.83. The AK in the series with SH-SY5Y cells [2] (PKIS2 primary screening) was 91.29. For the same compound, the “Nuclear Count” value in the series on SH-SY5Y cells [3] (PKIS2 primary screening) worked out at 94.79. In the series with endogenous TFEB (PKIS2 primary screening), this compound returned a TFEB % of 3.43%. Also, in the series with endogenous TFE3 (PKIS2 primary screening), the TFE3 % amounted to 10.58%.

Turning to `O=C(Nc1ccccc1F)NC1CCN(c2ccnc(Nc3ccc(F)cc3)n2)C1` (stereo not drawn) [GSK1379722], the “DQ Intensity” value with SH-SY5Y cells [1] (setting [4]) is on record as 129.34. The “DQ Spot” value with SH-SY5Y cells [1] (setting [5]) is on record as 121.71. This compound also yielded an AK in the series on SH-SY5Y cells [2] (PKIS2 primary screening) of 94.79. Further, the “Nuclear Count” value in the series on SH-SY5Y cells [3] (PKIS2 primary screening) was 114.62. This compound also returned a TFEB % in the series on endogenous TFEB (PKIS2 primary screening) of 14.40%. The same compound gave a TFE3 % in the series with endogenous TFE3 (PKIS2 primary screening) of 10.71%.

Take `CNc1nc(-c2ccc3c(N)n[nH]c3c2)cc(N2C[C@@H](C(=O)NC3CCCCC3)OC[C@H]2C)n1` [GSK2375584]: the “DQ Intensity” value with SH-SY5Y cells [1] (setting [4]) is 111.29. Also, in the series with SH-SY5Y cells [1] (setting [5]), the “DQ Spot” value is listed as 104.60. The same compound came in with an AK with SH-SY5Y cells [2] (PKIS2 primary screening) of 76.99. For the same compound, the “Nuclear Count” value with SH-SY5Y cells [3] (PKIS2 primary screening) is given as 127.70. Further, in the series with endogenous TFEB (PKIS2 primary screening), the TFEB % turned out to be 4.51%. In the series on endogenous TFE3 (PKIS2 primary screening), the TFE3 % was found to be 6.46%.

As for `COc1cccc(CNC(=O)NC2CCN(c3ccnc(Nc4ccc(F)cc4)n3)C2)c1` (stereo not drawn) [GSK1379723], the “DQ Intensity” value with SH-SY5Y cells [1] (setting [4]) amounted to 104.41. In addition, in the series on SH-SY5Y cells [1] (setting [5]), the “DQ Spot” value is 106.33. This compound displayed an AK in the series on SH-SY5Y cells [2] (PKIS2 primary screening) of 98.00. In addition, the “Nuclear Count” value with SH-SY5Y cells [3] (PKIS2 primary screening) was 83.60. For the same compound, the TFEB % in the series with endogenous TFEB (PKIS2 primary screening) was 8.63%. In the series with endogenous TFE3 (PKIS2 primary screening), the TFE3 % was 22.56%.

Consider `O=C(NC1CCN(c2ccnc(Nc3ccc(F)cc3)n2)C1)c1cc2ccccc2s1` (stereo not drawn) [GSK1379716], for which, in the series on SH-SY5Y cells [1] (setting [4]), the “DQ Intensity” value turned out to be 72.95. Besides, the “DQ Spot” value with SH-SY5Y cells [1] (setting [5]) is 96.75. Also, the AK in the series on SH-SY5Y cells [2] (PKIS2 primary screening) was 79.19. Further, the “Nuclear Count” value in the series on SH-SY5Y cells [3] (PKIS2 primary screening) is on record as 86.00. The TFEB % in the series with endogenous TFEB (PKIS2 primary screening) is 2.96%. For the same compound, the TFE3 % in the series on endogenous TFE3 (PKIS2 primary screening) was found to be 24.94%.

For the compound `COc1cccc(C2=C(N(C)c3ccccc3)C(=O)NC2=O)c1` [UNC10225293A], the “DQ Intensity” value in the series with SH-SY5Y cells [1] (setting [4]) is recorded as 96.89. Moreover, the “DQ Spot” value with SH-SY5Y cells [1] (setting [5]) amounted to 106.44. In the series on SH-SY5Y cells [2] (PKIS2 primary screening), the AK was determined as 74.50. Also, the “Nuclear Count” value with SH-SY5Y cells [3] (PKIS2 primary screening) was 78.26. The TFEB % in the series with endogenous TFEB (PKIS2 primary screening) is 4.50%. In the series with endogenous TFE3 (PKIS2 primary screening), the TFE3 % is recorded as 13.51%.

For `CNC(=O)c1ccccc1Nc1nc(Nc2cccc(CS(C)(=O)=O)c2)ncc1C` [GSK1520489], in the series with SH-SY5Y cells [1] (setting [4]), the “DQ Intensity” value is 192.20. Further, the “DQ Spot” value in the series on SH-SY5Y cells [1] (setting [5]) amounted to 118.45. The same compound showed an AK in the series on SH-SY5Y cells [2] (PKIS2 primary screening) of 149.13. In the series on SH-SY5Y cells [3] (PKIS2 primary screening), the “Nuclear Count” value is on record as 38.33. The TFEB % in the series with endogenous TFEB (PKIS2 primary screening) turned out to be 10.40%. Also, the TFE3 % in the series with endogenous TFE3 (PKIS2 primary screening) is on record as 10.71%.

`CNc1nccc(-c2c(-c3ccc(F)cc3)ncn2C2CCN(C)CC2)n1` [UNC10225274A]: in the series on SH-SY5Y cells [1] (PKIS2 primary screening), the “DQ Intensity” value was 105.02 and the “DQ Spot” value worked out at 100.15. In the series on SH-SY5Y cells [2] (PKIS2 primary screening), this compound showed an AK of 126.95. The “Nuclear Count” value in the series on SH-SY5Y cells [3] (PKIS2 primary screening) is reported as 122.34. This compound also gave a TFEB % in the series with endogenous TFEB (PKIS2 primary screening) of 7.89%. Besides, the TFE3 % in the series with endogenous TFE3 (PKIS2 primary screening) is 15.08%.

As to `Cc1cccc(Nc2nc(N[C@H]3CCNC3)ncc2C(N)=O)c1.Cl` [UNC10225356A], in the series with SH-SY5Y cells [1] (PKIS2 primary screening), the “DQ Intensity” value turned out to be 128.58 and the “DQ Spot” value is on record as 110.55. The compound further displayed an AK in the series with SH-SY5Y cells [2] (PKIS2 primary screening) of 117.33. Further, in the series on SH-SY5Y cells [3] (PKIS2 primary screening), the “Nuclear Count” value was 97.71. The compound also displayed a TFEB % in the series on endogenous TFEB (PKIS2 primary screening) of 10.40%. The same compound displayed a TFE3 % with endogenous TFE3 (PKIS2 primary screening) of 8.51%.

With `COc1ccc(COc2cc(-n3cnc4ccccc43)sc2C(N)=O)cc1` [UNC10225127A], in the series on SH-SY5Y cells [1] (PKIS2 primary screening), the “DQ Intensity” value was 119.47 and the “DQ Spot” value came out at 107.75. Moreover, the AK with SH-SY5Y cells [2] (PKIS2 primary screening) is on record as 69.30. In addition, the “Nuclear Count” value in the series with SH-SY5Y cells [3] (PKIS2 primary screening) was 109.00. The same compound yielded a TFEB % in the series with endogenous TFEB (PKIS2 primary screening) of 4.73%. In the series on endogenous TFE3 (PKIS2 primary screening), the TFE3 % was 11.50%.

`Nc1nccc(-c2c(-c3ccc(F)cc3)ncn2C2CCN(Cc3ccccc3)CC2)n1` [UNC10225058A]: in the series on SH-SY5Y cells [1] (PKIS2 primary screening), the “DQ Intensity” value is 142.65 and the “DQ Spot” value is 129.81. The compound also returned an AK in the series with SH-SY5Y cells [2] (PKIS2 primary screening) of 75.20. Moreover, the “Nuclear Count” value in the series with SH-SY5Y cells [3] (PKIS2 primary screening) is recorded as 98.98. The compound further displayed a TFEB % in the series on endogenous TFEB (PKIS2 primary screening) of 3.25%. The same compound came in with a TFE3 % in the series with endogenous TFE3 (PKIS2 primary screening) of 7.38%.

As for `CS(=O)(=O)CCNCc1nc(-c2ccc3ncnc(Nc4ccc(OCc5cccc(F)c5)c(Cl)c4)c3c2)cs1.Cl` [UNC10225091A], the “DQ Intensity” value in the series on SH-SY5Y cells [1] (setting [4]) is 63.39. The “DQ Spot” value in the series with SH-SY5Y cells [1] (setting [5]) was 82.01. The compound further registered an AK in the series on SH-SY5Y cells [2] (PKIS2 primary screening) of 98.46. For the same compound, the “Nuclear Count” value in the series with SH-SY5Y cells [3] (PKIS2 primary screening) is 114.33. This compound came in with a TFEB % with endogenous TFEB (PKIS2 primary screening) of 5.83%. Also, the TFE3 % with endogenous TFE3 (PKIS2 primary screening) came out at 9.84%.

On to `CC[C@@H]1CO[C@H](C(=O)Nc2ccccc2)CN1c1cc(-c2ccc3c(N)n[nH]c3c2)nc(NC)n1` [GSK2376236], for which the “DQ Intensity” value in the series with SH-SY5Y cells [1] (setting [4]) is on record as 102.90. Also, the “DQ Spot” value in the series with SH-SY5Y cells [1] (setting [5]) is given as 87.99. Also, the AK in the series on SH-SY5Y cells [2] (PKIS2 primary screening) stood at 114.69. Further, in the series on SH-SY5Y cells [3] (PKIS2 primary screening), the “Nuclear Count” value was determined as 121.19. The compound also displayed a TFEB % in the series on endogenous TFEB (PKIS2 primary screening) of 3.52%. In the series with endogenous TFE3 (PKIS2 primary screening), the TFE3 % is 8.81%.
